# Where two headings read alike, the source gives them in different places. Marks after values point to notes of the source that are not given here.
# Columns and labels:
# [1] = for Qualitative Tmax (urine collection with greatest excretion): 12h urine collections, np = no peak; for Cmax (nmol excreted) / Tmax: urine; for Cmax (nmol excreted): mean ± SD; for Tmax: female, Sprague Dawley, rat, po
# [2] = for Qualitative Tmax (blood collection with greatest plasma level): blood every 6h, np = no peak; for Plasma AUC: plasma 0–48h, trapezoidal; for Plasma AUC / Cmax: mean ± SD; for Cmax: plasma
Structure (SMILES),Qualitative Tmax (urine collection with greatest excretion) ([1]; High dose (1000 mg/kg bw)),Cmax (nmol excreted) ([1]; High dose (1000 mg/kg bw)),Qualitative Tmax (urine collection with greatest excretion) ([1]; Low dose (75 mg/kg bw)),Cmax (nmol excreted) ([1]; Low dose (75 mg/kg bw)),Qualitative Tmax (urine collection with greatest excretion) ([1]; Medium dose (350 mg/kg bw)),Cmax (nmol excreted) ([1]; Medium dose (350 mg/kg bw)),Qualitative Tmax (blood collection with greatest plasma level) ([2]; High dose (1000 mg/kg bw)) [h],Plasma AUC ([2]; High dose (1000 mg/kg bw)),Cmax ([2]; High dose (1000 mg/kg bw)) [nM],Qualitative Tmax (blood collection with greatest plasma level) ([2]; Medium dose (350 mg/kg bw)) [h],Plasma AUC ([2]; Medium dose (350 mg/kg bw)),Cmax ([2]; Medium dose (350 mg/kg bw)) [nM],Tmax ([1]; 350 mg/kg) [h],Tmax ([1]; 1000 mg/kg) [h],Tmax ([1]; 75 mg/kg) [h]
COc1ccc(CC(=O)O)cc1O [3-OH-4-OMe-PAA],np,np,np,np,np,np,–,–,–,–,–,–,–,–,–
"COc1ccc(CCC(=O)O)cc1O [3-OH-4-OMe-PPA, 3-hydroxy-4-methoxyphenylpropionic acid]",12 to 24 h,2.48 ± 2.69 nmol excreted,0 to 12 h,0.82 ± 0.58 nmol excreted,12 to 24 h,2.69 ± 1.83 nmol excreted,–,–,–,–,–,–,–,–,–
"O=C(O)CCc1cccc(O)c1 [3-OH-PPA, 3-hydroxyphenylpropionic acid]",12 to 24 h,275 ± 34 nmol excreted,0 to 12 h,25.4 ± 6.9 nmol excreted,0 to 12 h,177 ± 24 nmol excreted,12,8.00 ± 2.22 ^x uM*h,507 ± 107,12,2.46 ± 0.95 ^w uM*h,161 ± 92,–,–,–
"O=C(O)CNC(=O)c1cccc(O)c1 [3-OH-hippuric acid, 3-hydroxyhippuric acid]",–,26.3 ± 7.6 nmol excreted,np,np,–,31.8 ± 8.1 nmol excreted,–,–,–,–,–,–,12 to 24,12 to 24,–
"O=C(O)Cc1ccc(O)cc1 [4-OH-PAA, 4-hydroxyphenylacetic acid]",–,0.51 ± 0.16 nmol excreted,–,0.30 ± 0.12 nmol excreted,–,0.84 ± 0.38 nmol excreted,–,–,–,–,–,–,0 to 24,0 to 24,0 to 24
O=C(O[C@@H]1O[C@H](C(=O)O)[C@@H](O)[C@H](O)[C@H]1O)c1ccccc1 [BzA glucuronide],12 to 24 h,0.76 ± 0.17 nmol excreted,np,np,12 to 24 h,0.85 ± 0.17 nmol excreted,–,–,–,–,–,–,–,–,–
"O=C(O)/C=C/c1ccc(O)c(O)c1 [Caffeic acid, caffeic acid]",–,3.97 ± 1.38 nmol excreted,np,np,–,3.18 ± 1.64 nmol excreted,–,–,–,–,–,–,0 to 12,0 to 12,–
"O=C(/C=C/c1ccc(O)c(O)c1)O[C@@H]1C[C@](O)(C(=O)O)C[C@@H](O)[C@H]1O [Chlorogenic acid, chlorogenic acid]",–,238 ± 67 nmol excreted,np,np,–,66.1 ± 23.4 nmol excreted,–,–,–,–,–,–,0 to 24,0 to 12,–
OC[C@H]1O[C@@H](Oc2cc3c(O)cc(O)cc3[o+]c2-c2ccc(O)c(O)c2)[C@H](O)[C@@H](O)[C@H]1O [Cyanidin Galactoside],0 to 12 h,0.46 ± 0.09 nmol excreted,np,np,0 to 12 h,0.19 ± 0.04 nmol excreted,–,–,–,–,–,–,–,–,–
"OC[C@H]1O[C@@H](Oc2cc3c(O)cc(O)cc3[o+]c2-c2ccc(O)c(O)c2)[C@H](O)[C@@H](O)[C@@H]1O [Cyanidin Glucoside, cyanidin-3-O-glucoside]",0 to 12 h,0.22 ± 0.04 nmol excreted,np,np,0 to 24 h,0.11 ± 0.05 nmol excreted,–,–,–,–,–,–,–,–,–
